By IC50 is commonly meant the point on the concentration scale where inhibition reaches its midpoint. Low readings indicate greater potency in that assay, high ones weaker potency in that assay.

The structures appear in SMILES notation.

The assay has as its target T1, Pancreatic alpha-amylase (Sus scrofa, UniProt P00690).
T1 sequence (P00690 whole entry): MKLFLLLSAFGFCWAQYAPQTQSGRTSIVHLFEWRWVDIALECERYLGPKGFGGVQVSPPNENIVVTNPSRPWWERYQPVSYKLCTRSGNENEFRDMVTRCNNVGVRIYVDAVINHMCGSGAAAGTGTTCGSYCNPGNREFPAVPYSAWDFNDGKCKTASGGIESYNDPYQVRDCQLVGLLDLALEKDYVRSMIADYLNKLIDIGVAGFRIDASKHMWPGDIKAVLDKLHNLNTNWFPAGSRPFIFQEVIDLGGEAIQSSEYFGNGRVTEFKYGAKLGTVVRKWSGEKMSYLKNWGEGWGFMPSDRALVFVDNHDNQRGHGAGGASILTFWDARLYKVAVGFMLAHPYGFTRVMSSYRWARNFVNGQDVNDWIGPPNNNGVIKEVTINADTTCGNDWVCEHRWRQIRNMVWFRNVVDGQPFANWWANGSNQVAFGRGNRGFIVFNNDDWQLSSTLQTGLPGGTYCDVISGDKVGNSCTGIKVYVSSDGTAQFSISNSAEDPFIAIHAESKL
The assay is described as follows: Inhibition of pig pancreatic alpha-amylase by Bernfeld method.

`CSC(CC(=O)c1ccc(Br)cc1)=Nc1nc2ccccc2s1`: the half-inhibitory concentration (IC50) is 17.8 µM.

Consider `CCOc1ccc2nc(N=C(CC(=O)c3ccc(Cl)cc3)SC)sc2c1`, for which the IC50 was 17.9 µM. The IC50 values of the last two compounds are within 1.5-fold of each other.
